Consider two molecules from patent publication US20230148588A1, “METHODS, COMPOSITIONS, AND SYSTEMS FOR ENHANCING EX-VIVO ORGAN PERFUSION” (University Health Network, priority 2020, published 2023).

The subject of series [1] is human lung epithelial cells (BEAS-2B). Put plainly: Basic cellular function of cells exposed to Steen solution and its modifications (IncuCyte Live Cell Analysis). The class given is cell-based. The note with it: for apoptosis / cell migration: GlutaMax added at 4 mM to Steen solution, vs Steen solution. The source says: (§1) Methods: Human pulmonary microvascular endothelial cells (HPMEC) and human lung epithelial cells (BEAS-2B) were used to determine the effects of Steen solution components on basic cellular function. Cell confluence, apoptosis and migration were visualized and quantified by IncuCyte® Live Cell Analysis System in real-time. A simulated EVLP cell culture model was established by replacing regular culture medium with cold lung preservation solution and followed by “perfusion” with normothermic Steen solution or its modifications. Cell apoptosis was quantified. Porcine lung EVLP was performed using Steen solution with added nutrients.
(§2) The effects of glutamine in Steen solution on mitochondrial respiration and glycolytic function were examined using a Seahorse XFe analyzer.

The test system of series [2] is human pulmonary microvascular endothelial cells (HPMEC). The series is described as above. Type of series: cell-based. Conditions: for apoptosis / cell migration: GlutaMax added at 4 mM to Steen solution, vs Steen solution.
Description: as §1, §2

Series [3] deals with BEAS-2B. Nature of the series: Simulated EVLP cell culture model (cold Perfadex preservation, then perfusion with Steen solution with and without GlutaMax). Type of series: cell-based, human. Conditions: for total GSH production: fluorometric assay kit; for apoptosis: GlutaMax 0.5 mM to 4 mM in Steen solution, after 6 h or 18 h cold preservation, simulated EVLP. An excerpt: (§3) Methods: Human pulmonary microvascular endothelial cells (HPMEC) and human lung epithelial cells (BEAS-2B) were used to determine the effects of Steen solution components on basic cellular function. Cell confluence, apoptosis and migration were visualized and quantified by IncuCyte® Live Cell Analysis System in real-time. A simulated EVLP cell culture model was established by replacing regular culture medium with cold lung preservation solution and followed by “perfusion” with normothermic Steen solution or its modifications. Cell apoptosis was quantified. Porcine lung EVLP was performed using Steen solution with added nutrients. A cell culture model was developed that simulates hypothermic lung preservation and reperfusion and was used to “perfuse” cells with EVLP perfusate, as shown in FIG. 6A. Culture medium of confluent cells was replaced with 4° C. lung preservation solution (Perfadex®) for 6 h or 18 h, and then “perfused” with Steen solution with and without GlutaMax. […] Human lung endothelial and epithelial cells were subjected to simulated EVLP treated with Steen solution with and without GlutaMax. GSH concentration in cell culture was measured with a fluorometric assay kit from BioVision.

The test system of series [4] is HPMEC. The series is described as above. The note with it: for total GSH production: fluorometric assay kit; for apoptosis: GlutaMax 0.5 mM to 4 mM in Steen solution, after 6 h or 18 h cold preservation, simulated EVLP. The class given is cell-based, human.
Description: as §3

Series [5] deals with IL-8. Nature of the series: IL-8 production in simulated EVLP cell culture model. Type of series: cell-based, human. Conditions: prolonged CIT (18 h) and simulated EVLP (12 h). Here is the method: A cell culture model was developed that simulates hypothermic lung preservation and reperfusion and was used to “perfuse” cells with EVLP perfusate, as shown in FIG. 6A. Culture medium of confluent cells was replaced with 4° C. lung preservation solution (Perfadex®) for 6 h or 18 h, and then “perfused” with Steen solution with and without GlutaMax.

Series [6] deals with pig lung. Nature of the series: Pig lung EVLP with GlutaMax-modified Steen solution. Conditions: for lung function: compared with historical controls. An excerpt:
Methods: Human pulmonary microvascular endothelial cells (HPMEC) and human lung epithelial cells (BEAS-2B) were used to determine the effects of Steen solution components on basic cellular function. Cell confluence, apoptosis and migration were visualized and quantified by IncuCyte® Live Cell Analysis System in real-time. A simulated EVLP cell culture model was established by replacing regular culture medium with cold lung preservation solution and followed by “perfusion” with normothermic Steen solution or its modifications. Cell apoptosis was quantified. Porcine lung EVLP was performed using Steen solution with added nutrients. […] During the experiment, EVLP was extended as long as the dynamic lung compliance was greater than 15 ml/cmH2O. […] Pig lungs were preserved at 4° C. followed by EVLP. […] Lung function assessment: Perfusate was sampled regularly. PO2, PCO2, pH, Na^+, K^+, Ca^2+, Cl^−, glucose and lactate were determined via a blood gas analyzer (see FIG. 17; Table 3). Pulmonary function was monitored continuously and assessed every hour, including static and dynamic compliances, peak airway inspiratory pressure, pulmonary artery pressure and pulmonary vascular resistance (PVR). Lung tissue biopsies were collected before, during and at the end of EVLP. Lung wet-to-dry ratio was measured as an indicator of lung edema.

Series [7] in a line: pH of Steen solution after addition of nutrients. Type of series: physicochemical. Conditions: nutrient added to Steen solution (GlutaMax at 4 mM; amino acids at clinically recommended concentrations). As to the method: Amino acids are essential nutrients for cell proliferation. In rat lungs, the lack of amino acids and insulin in perfusate reduced protein synthesis, while vitamin C prolonged the viability and stability of perfused rat lungs by slowing the decline of mitochondrial activity. Therefore, clinically recommended concentrations of amino acids and/or vitamins were added in Steen solution to improve its performance.

[8] abbreviates: CIT 6 h and EVLP 4 h, listed as GlutaMAX.
Where [9] appears, read: pig lung EVLP, first 18 h, compared with historical control.
Setting [10] is: different concentrations of Albumin (1, 2, 4, 7%) and Dextran 40 (5, 25, 50 g/L) in Steen solution.

“Also recorded” adds a separate entry of the source. Where a SMILES comes first, the peptide text is derived from it.

As for `C[C@H](N)C(=O)N[C@@H](CCC(N)=O)C(=O)O` [GlutaMax, L-alanyl-L-glutamine] (H-Ala-Gln-OH), the apoptosis entry is given as “reduced apoptosis” in series [1]; “significantly inhibited cell apoptosis” in series [1] (listed as L-alanyl-L-glutamine); “reduced apoptosis” in series [2]; “significantly inhibited cell apoptosis” in series [2] (listed as L-alanyl-L-glutamine); “reduced apoptosis” in series [3]; “reduced apoptosis” in series [3] (listed as Glutamax). Moreover, the apoptosis result is “significantly reduced apoptosis” in series [3] (listed as gln), “reduced apoptosis” in series [4], “reduced apoptosis” in series [4] (listed as Glutamax) and “significantly reduced apoptosis” in series [4] (listed as gln). Also, the cell migration entry in series [1], in series [1] (listed as L-alanyl-L-glutamine), in series [2] and in series [2] (listed as L-alanyl-L-glutamine) was “improved cell migration” throughout. For the same molecule, the “HSP70 production (protein expression in cell lysates)” value in series [3] (CIT 6 h and EVLP 4 h) is reported as “promoted HSP70 production; also recorded: enhanced HSP70 production”; in series [4] (CIT 6 h and EVLP 4 h), “promoted HSP70 production; also recorded: enhanced HSP70 production”. The “total GSH production” value in series [3] (CIT 6 h and EVLP 4 h) is “enhanced total GSH production”; in series [3] (setting [8]), “enhanced Total GSH production”; in series [4] (CIT 6 h and EVLP 4 h), “enhanced total GSH production”; in series [4] (setting [8]), “enhanced Total GSH production”. Also, in series [5], the IL-8 production result is listed as “inhibited IL-8 production”. Further, the lung function result in series [6] (pig lung EVLP) is listed as “improved lung function”; in series [6] (pig lung EVLP, listed as gln), “stable lung function”. Moreover, in series [6] (setting [9]), the “delta PO2” value is on record as “higher”. In addition, in series [6] (setting [9]), the dynamic compliance result was “higher”. Moreover, the peak airway pressure result in series [6] (setting [9]) is recorded as “lower”. The EVLP period result in series [6] (pig lung EVLP, gln added to Steen solution) was “significantly extend”. For the same molecule, in series [6] (pig lung, EVLP extended as long as dynamic lung compliance greater than 15 ml/cmH2O), the EVLP duration reached amounted to 36 h. The pH result in series [7] is listed as “maintained in the physiological range”.

For the molecule Dextran 40, the “cell confluence, apoptosis and migration” value in series [1] (setting [10]) and in series [2] (setting [10]) was “no major differences” throughout.
